According to patent US7361685B2, “Compounds for use in the treatment of skin conditions” (Oregon Health & Science University, priority 2001, dated 2008):
Values joined by “and” are separate entries in the source; they are usually repeats but may differ in a detail not shown here. Identical values can stand only once.

How the values were obtained:
melan-a cells = assay: Dendricity of melan-a cells by observation under microscope; type: cell-based, mouse; parameters: key to Dendricity of RV-A08: +++: highly dendiitic; ++: moderately dendritic; +: weakly dendritic; key to Dentricity of RV-A07 / Dendricity of RV-A09 / Dendricity of RV-A10 / Dendricity: +++: highly dendritic; ++: moderately dendritic; +: weakly dendritic; −: no effect
From the text: Effect on dendricity of melan-a cells by the test compounds was by observation under microscope. Dendricity is relevant to vitiligo since normal skin melanocytes have dendrites, but in vitiligo the melanocytes seem to lose these before they disappear from the patches.

mouse melan-a cell line = assay: Microplate culture and sulforhodamine B (SRB) proliferation assay, melan-a melanocytes; type: cell-based
Protocol: A supplemental growth medium of 10% foetal bovine serum (FBS) was added to the […] microtiter plates. The plates were incubated at 37° C. in a 10% CO2, 90% air humidified atmosphere for 4 days. At the end of the incubation, an SRB assay was performed. Briefly, cells attached to the bottom of the plate were fixed by addition of cold trichloroacetic acid (TCA, 4° C., Aldrich, Dorset, UK) on the top of the growth medium (final TCA 20% w/v). The plate was placed at 4° C. for 1 hour before being gently washed five times with tap water. It was allowed to dry in air, or aided with a hair dryer to speed up the drying process, then 50 μl of […] SRB dissolved in 1% acetic acid in water was added to each well for 30 min. At the end of the staining period, unbound SRB was removed by washing 4 times with 1% acetic acid. The plate was air dried again, and 150 μl of 10 mM aqueous Tris base (Sigma-Aldrich Co. Ltd, Irvine, UK) was added into each well to solubilize the cell-bound dye. […] A control assay was carried out on cells incubated without test compound. There were 2 or 3 series of experiments, each of which consisted of six replicate experiments.
Various compounds of formula (1) were synthesised and tested for melanocyte (mouse melan-a) proliferant activity in-vitro. Cells were incubated with the test compound for 4 days, as described above.
Percentage cell growth was obtained with a given compound calculated as (optical density in the presence of the compound/control optical density)×100.
Melan-a cell proliferant activity for tested compounds was compared with that obtained with piperine. […] All figures are given with Standard Error of the Mean.

Row | Molecule | Dendricity (melan-a cells; 1 μM (tables RV-C04, RV-C05)) | Dendricity (melan-a cells; 10 μM (tables RV-C04, RV-C05)) | Dendricity (melan-a cells; 50 μM (tables RV-C04, RV-C05)) | Dendricity (melan-a cells; 100 μM (tables RV-C04, RV-C05)) | Percentage cell growth (mouse melan-a cell line; 1 μM, 4 days, ± SEM) | Percentage cell growth (mouse melan-a cell line; 10 μM, 4 days, ± SEM) | Percentage cell growth (mouse melan-a cell line; 50 μM, 4 days, ± SEM) | Percentage cell growth (mouse melan-a cell line; 100 μM, 4 days, ± SEM) [%] | Percentage cell growth (Repeated experiments) Piperine (mouse melan-a cell line; 10 μM piperine run alongside the test compound, 4 days, ± SEM) | Percentage cell growth (mouse melan-a cell line; 25 μM, 4 days, ± SEM) [%] | Stimulant activity (mouse melan-a cell line; 10 μM) | Percentage cell growth (Repeated experiments) Test cpd. (mouse melan-a cell line; 10 μM test compound, 4 days, OD vs control x100, ± SEM) | Dentricity of RV-A07 (melan-a cells; 10 μM) | Dendricity of RV-A08 (melan-a cells; 10 μM) | Dendricity of RV-A09 (melan-a cells; 10 μM) | Dendricity of RV-A10 (melan-a cells; 10 μM) | Dendricity of RV-A10 (melan-a cells; 50 μM)
1 | 7-(3,4-methylenedioxy phenyl)-heptanoic acid piperidineamide [RV-C05] | + | ++ | ++ | + | 118 ± 1% | 160 ± 5**♦ % | 158 ± 19 % | 113 ± 15 | – | – | – | – | – | – | – | – | –
2 | O=C(/C=C/C=C/c1ccc2c(c1)OCO2)N1CCCCC1 [Piperine, reference compound] | – | – | – | – | 147 ± 11**♦ % and 211 ± 16**♦ % and 216 ± 14**♦ % and 221 ± 17**♦ % and 236 ± 30 % and 191 ± 12**♦ % and 161 ± 13 % | 192 ± 13**♦ % and 216 ± 33 % and 236 ± 17 % and 263 ± 16 % and 302 ± 17 % and 216 ± 18 % and 192 ± 2**♦ % | – | – | 236 ± 17% and 263 + 16** % and 302 ± 17 % and 210 ± 65% and 170 ± 22% and 155 ± 19% and 216 ± 33 % | 167 ± 19 | – | – | – | – | – | – | –
3 | O=C(/C=C/C=C/c1ccc2c(c1)OCO2)N1CCOCC1 [RV-A02, 5-E,E-piperinoyl morpholine] | – | – | – | – | 125 ± 10% | 167 ± 17 % | 168 ± 12**□ % | – | – | 171 ± 8 | Positive | 156 ± 58% and 187 ± 40% and 153 ± 19% | – | – | – | – | –
4 | CNC(=O)/C=C/C=C/c1ccc2c(c1)OCO2 [RV-A07, 5-E,E-piperinoylmethylamine] | – | – | – | – | 140 ± 12 % | 170 ± 24 % | 71 ± 5% | 46 ± 2 | – | – | Positive | – | ++ | – | – | – | –
5 | CCNC(=O)/C=C/C=C/c1ccc2c(c1)OCO2 [RV-A08] | – | – | – | – | 139 ± 27 % | 200 ± 14 % | 81 ± 12% | 62 ± 13 | – | – | Positive | – | – | +++ | – | – | –
6 | CC(C)NC(=O)/C=C/C=C/c1ccc2c(c1)OCO2 [RV-A09, 5-E,E-piperinoylisopropylamine] | – | – | – | – | 187 ± 15 % | 224 ± 19 % | 85 ± 5% | 42 ± 6 | – | – | Positive | – | – | – | +++ | – | –
7 | O=C(/C=C/C=C/c1ccc2c(c1)OCO2)NC1CCCCC1 [RV-A10, 5-E,E-piperinoyl cyclohexylamine] | – | – | – | – | 301 ± 20**□ % | 308 ± 29 % | 155 ± 22**□ % | 100 ± 13 | – | – | Positive | – | – | – | – | +++ | ++
8 | O=C(CCCCc1ccc2c(c1)OCO2)NC1CCCCC1 [RV-C04, 5-(3,4-methylenedioxyphenyl)-pentanoic acid cyclohexylamide] | + | +++ | +++ | +++ | 129 ± 6 % | 192 ± 6 % | 192 ± 10 % | 191 ± 12 | – | – | – | – | – | – | – | – | –
